Experimental data from patent publication USRE36397E, “Inhibitors of poly(ADP-ribose) synthetase and use thereof to treat NMDA neurotoxicity” (The John Hopkins University, priority 1998, dated 1999).
“Also recorded” adds a separate entry of the source. Where two headings read alike, the source gives them in different places.

Key:
[1] = molecular target: PARS (poly(ADP-ribose) synthetase) (Rattus norvegicus, UniProt P27008); test: PARS activity in rat brain nuclear extracts; format: biochemical; conditions: for activity at 20 µM: read-out: PARS activity, % of basal levels
PARS (poly(ADP-ribose) synthetase), sequence (P27008 whole entry): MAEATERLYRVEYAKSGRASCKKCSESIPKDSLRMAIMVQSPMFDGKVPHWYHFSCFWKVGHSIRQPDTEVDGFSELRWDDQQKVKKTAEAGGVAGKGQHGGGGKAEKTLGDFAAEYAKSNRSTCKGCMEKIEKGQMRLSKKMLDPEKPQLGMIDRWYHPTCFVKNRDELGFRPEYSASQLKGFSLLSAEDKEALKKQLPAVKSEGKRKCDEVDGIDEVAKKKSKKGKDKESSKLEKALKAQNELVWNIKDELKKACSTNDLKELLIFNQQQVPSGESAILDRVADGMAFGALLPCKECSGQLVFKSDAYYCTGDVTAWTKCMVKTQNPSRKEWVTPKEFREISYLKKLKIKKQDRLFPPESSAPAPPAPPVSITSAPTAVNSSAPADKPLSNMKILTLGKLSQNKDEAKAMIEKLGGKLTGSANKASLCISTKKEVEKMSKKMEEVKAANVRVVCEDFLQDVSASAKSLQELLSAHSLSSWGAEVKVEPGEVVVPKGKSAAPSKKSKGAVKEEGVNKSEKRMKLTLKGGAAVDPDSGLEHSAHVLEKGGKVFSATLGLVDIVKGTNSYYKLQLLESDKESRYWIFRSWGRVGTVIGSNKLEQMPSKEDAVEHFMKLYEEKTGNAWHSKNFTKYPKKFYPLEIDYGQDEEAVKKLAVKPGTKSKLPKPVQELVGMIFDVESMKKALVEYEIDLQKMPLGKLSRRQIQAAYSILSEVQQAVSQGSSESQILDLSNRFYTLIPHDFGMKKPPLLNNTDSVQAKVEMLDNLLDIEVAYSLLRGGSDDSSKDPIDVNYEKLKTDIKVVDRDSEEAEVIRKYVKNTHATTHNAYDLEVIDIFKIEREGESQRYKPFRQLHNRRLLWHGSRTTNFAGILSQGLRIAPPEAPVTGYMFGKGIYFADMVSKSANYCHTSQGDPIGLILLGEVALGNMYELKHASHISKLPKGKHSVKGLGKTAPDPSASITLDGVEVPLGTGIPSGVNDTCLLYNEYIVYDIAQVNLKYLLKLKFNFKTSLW
Description: Inhibitors of poly(ADP-ribose) synthetase are compounds which compete for the substrate binding site of poly(ADP-ribose) synthetase or other sites on the enzyme, and include both reversible and irreversible inhibitors. The present invention contemplates the use of any physiologically acceptable inhibitor which inhibits poly(ADP-ribose) synthetase activity. The effectiveness of a compound, and its relative potency as a poly(ADP-ribose) synthetase inhibitor, can be tested and routinely determined by measuring inhibition of poly(ADP-ribose) synthetase activity. Poly(ADP-ribose) synthetase activity can be assayed according to the method of Schranfstatter, et al., J. Clin. Inves. 77, 1312 (1986).
Whole brains from 1-day old rats were homogenized in 20% (w/v) buffer A [50 mM Tris-HCl (pH 7.4), 1 mM EDTA, 1 mM DTT, 50 mM NaCl, 0.25M sucrose, 0.2 mM phenylmethylsulfonyl fluoride, 1 μg/ml each of chymostatin, leupeptin, pepstatin and trypsin inhibitor]. The homogenate was centrifuged at 1000 g for 15 min. The pellet was washed with buffer A and centrifuged again. The washed pellet, termed nuclear fraction, was resuspended in buffer A. PARS activity was assayed according to I. U. Schranfstatter, et al., J. Clin. Inves. 77, 1312 (1986). Each 50 μl assay mixture contained 10 μg of the nuclear protein fraction and [adenylate-^32 P]

[2] = tested on: primary neuronal cultures from cortex; test: NMDA neurotoxicity in cerebral cortical cultures (trypan blue, % cell death); format: cell-based, Sprague-Dawley rats; conditions: for protection against NMDA neurotoxicity (in words): 10 μM 1,5-dihydroxyisoquinoline, 1 mM novobiocin, Table 1A and summary statements
Experimental: To determine directly if PARS activation participates in NMDA neurotoxicity, we monitored neurotoxicity elicited by NMDA in cerebral cortical cultures in which NO synthase inhibitors provide marked protection (V. L. Dawson et al., Proc. Natl. Acad. Sci. U.S.A. 88, 6368 (1991); V. L. Dawson et al., J. Neurosci. 13, 2651 (1993)) (FIG. 2).
Table 1A, PARS inhibitors were applied 30 min before and during NMDA application. In Table 1B, PARS inhibitors were applied after NMDA administration at the indicated times for 20 to 24 hr. Data are the means ±SEM (n≥8). Each data point represents 4,000-12,000 neurons counted. *p≤0.001 Student's t-test.
(§1) Primary neuronal cultures from cortex were prepared from fetal Sprague-Dawley rats, gestation day 13-14. Mature neurons (grater than 21 days in culture) were used in all experiments.
(§2) Neurotoxicity was determined by exposing the neurons to the various test solutions as previously described (Dawson, supra). […], SNP or SNAP were applied to the cells for 5 min, then the cells were washed and replaced with MEM, 21 mM glucose overnight in the incubator. Twenty to 24 hr after exposure to test solutions, the neurons were exposed to 0.4% trypan blue in CSS to stain the residue of non-viable cells and to assess toxicity. Viable and non-viable cells were counted. At least two separate experiments utilizing four separate wells were performed for each data point shown. Significant overall values were obtained by using a one-way, between groups analysis of variance. Specific comparisons on all possible pair combinations were made with the Student's t-test for independent means.

PARS = conditions: cited from earlier work; for relative potency as PARS inhibitor (in words): family of benzamide and its derivatives
pancreatic islet cells = conditions: Kallman et al. 1992; cited from earlier work
brain NOS = test: Nitrite formation in human kidney 293 cells stably transfected with brain NOS cDNA; format: cell-based; conditions: for nitrite formation: A23187 (10 μM), 2 hr, inhibitors 100 μM, n=3
Description: (§3) To ascertain whether NO itself elicits neurotoxicity by activation of PARS, we administered the NO releasers SNP and S-nitroso-N-acetylpenicillamine (SNAP). […] In human kidney 293 cells stably transfected with the cDNA of brain.

[3] = tested on: primary neuronal cultures from cortex; test: SNP and SNAP (NO releaser) neurotoxicity in cortical neuronal cultures; format: cell-based, Sprague-Dawley rats; conditions: for inhibition at 100 µM: Rattus norvegicus, Primary cortical neuron
Experimental: as §1, §2, §3

[4] = Direct interaction of benzamide with SNP/NO (HPLC recovery); format: physicochemical
[5] = Table 1A, 500 μM NMDA + 100 μM compound, 30 min before and during NMDA
[6] = Table 1A, 500 μM NMDA + 1 mM compound, 30 min before and during NMDA

Q: For Oc1cccc2c(O)nccc12 [1,5-dihydroxyisoquinoline], which activity at 20 µM ([1]; inhibitor 20 μM, NO-treated DNA, FIG. 1A) is on record?
A: < 5%

Q: What about the “protection against NMDA neurotoxicity (in words)” value (shortened to “protection … (in words)”) [2] of the same compound?
A: neuroprotective

Q: And the “protection … (in words)” value ([2]; listed as 1,5-dihydroxy-isoquinoline)?
A: found to prevent neurotoxicity

Q: And the “% Cell Death (± S.E.M.)” value ([2]; Table 1A, 500 μM NMDA + 10 μM compound, 30 min before and during NMDA)?
A: 39.0 ± 4.5%

Q: What does the source list for NC(=O)c1cccc(N)c1 [3-aminobenzamide]?
A: protection against NMDA neurotoxicity (in words) [2]: found to have the ability to prevent neurotoxicity; also recorded: somewhat less protection; % Cell Death (± S.E.M.) [2, 5]: 45.9 ± 5.1%; relative potency as PARS inhibitor (in words) (PARS; relative to benzamide): about half as potent; protection of pancreatic islet cells from macrophage cytotoxicity (pancreatic islet cells): protects pancreatic islet cells from macrophage cytotoxicity

Q: For Nc1ccc2c3c(cccc13)C(=O)NC2=O [4-amino-1,8-naphthalimide], which activity at 20 µM [1] is on record?
A: < 5%

Q: Which “% Cell Death (± S.E.M.)” value [2, 5] does the source give for NC(=O)c1ccc(N)cc1 [4-aminobenzamide] here?
A: 55.8 ± 7.6%

Q: What about the “fold weaker than benzamide as PARS inhibitor” value (PARS; relative to benzamide) of the same compound?
A: 50-100 fold

Q: For CNc1ccc2oc(C[C@H]3O[C@@]4(CC[C@H]3C)O[C@H]([C@H](C)C(=O)c3ccc[nH]3)[C@H](C)C[C@H]4C)nc2c1C(=O)O [A23187], which nitrite formation (brain NOS) is on record?
A: 17.1±2.1 μM nitrite

Q: For O=C(O)c1ccccc1 [Benzoic acid], which “protection … (in words)” value [2] is on record?
A: found not to have any activity

Q: What about the “protection … (in words)” value ([2]; listed as benzoic acid) of the same compound?
A: inactive

Q: And the “% Cell Death (± S.E.M.)” value [2, 6]?
A: 58.9 ± 5.7%

Q: And the “relative potency as PARS inhibitor (in words)” value (PARS; relative to benzamide)?
A: inactive

Q: Which results are given for CN[C@H](CC(=O)O)C(=O)O [NMDA, N-methyl- D-aspartate]?
A: % Cell Death (± S.E.M.) ([2]; Table 1A, 500 μM NMDA alone): 57.1 ± 4.7%; % Cell Death (± S.E.M.) ([2]; Table 1B, 500 μM NMDA alone): 74.7 ± 7.8%

Q: With [NH-]c1c[n+](N2CCOCC2)no1 [SIN-1, 3-morpholinosyndnonimine] as the compound, how does the “effect on PARS activity by itself” value ([1]; SNP 1 mM, SIN-1 1 mM or untreated DNA, alone) read?
A: no effects on PARS

Q: For NC(=O)c1ccccc1 [benzamide], which “protection … (in words)” value [2] is on record?
A: found to prevent neurotoxicity

Q: What about the “protection … (in words)” value ([2]; listed as Benzamide) of the same compound?
A: greatest degree of protection

Q: And the “protection against NMDA neurotoxicity” value ([2]; 50 μM)?
A: no significant protection was detected

Q: What about the “reduction of NMDA mediated neurotoxicity” value ([2]; 100 μM, FIG. 2 legend) of the same compound?
A: reduces

Q: What about the “greater protection than at 100 μM” value ([2]; 500 μM versus 100 μM) of the same compound?
A: about 30%

Q: And the inhibition at 100 µM ([2]; Rattus norvegicus, Primary cortical neuron, read-out: protection against NMDA neurotoxicity)?
A: 40 to 50%

Q: What about the “% Cell Death (± S.E.M.)” value ([2]; Table 1A, 500 μM NMDA + 50 μM compound, 30 min before and during NMDA) of the same compound?
A: 60.1 ± 12.1%

Q: What about the “% Cell Death (± S.E.M.)” value [2, 5] of the same compound?
A: 39.5 ± 5.0%

Q: And the “% Cell Death (± S.E.M.)” value ([2]; Table 1A, 500 μM NMDA + 500 μM compound, 30 min before and during NMDA)?
A: 21.9 ± 4.1%

Q: What about the “% Cell Death (± S.E.M.)” value ([2]; Table 1B, 100 μM compound applied 5 min after 500 μM NMDA) of the same compound?
A: 35.6 ± 8.7%

Q: And the “% Cell Death (± S.E.M.)” value ([2]; Table 1B, 100 μM compound applied 30 min after 500 μM NMDA)?
A: 40.4 ± 5.6%

Q: And the “% Cell Death (± S.E.M.)” value ([2]; Table 1B, 100 μM compound applied 1 hour after 500 μM NMDA)?
A: 43.4%

Q: And the “reduction of SNAP mediated neurotoxicity” value ([3]; 100 μM, SNAP (300 μM), FIG. 2 legend)?
A: reduces

Q: What about the “reduction of SNP mediated neurotoxicity” value ([3]; 100 μM, SNP (500 μM), FIG. 2 legend) of the same compound?
A: reduces

Q: What about the inhibition at 100 µM ([3]; SNAP, read-out: reduction of SNAP neurotoxicity) of the same compound?
A: 45 to 50%

Q: And the inhibition at 100 µM ([3]; SNP, read-out: reduction of SNP neurotoxicity)?
A: 45 to 50%

Q: What about the “interaction with NO” value [4] of the same compound?
A: did not interact; also recorded: did not interact with NO

Q: What about the “recovery of benzamide after incubation with SNP” value ([4]; benzamide 1 mM, SNP 1 mM, five days, 25° C., HPLC C18, 7200 min) of the same compound?
A: 100%

Q: And the IC50 (PARS; in vitro, Banasik et al. 1992, read-out: IC50 for inhibiting PARS in vitro)?
A: 22 µM

Q: What does the source list for CO[C@@H]1[C@@H](OC(N)=O)[C@@H](O)[C@H](Oc2ccc3c(O)c(NC(=O)c4ccc(O)c(CC=C(C)C)c4)c(=O)oc3c2C)OC1(C)C [novobiocin]?
A: protection against NMDA neurotoxicity (in words) [2]: found not to have any activity in preventing neurotoxicity; also recorded: ineffective; % Cell Death (± S.E.M.) [2, 6]: 62.4 ± 8.9%

Q: With nitroarginine as the compound, how does the “effect on NOS / stimulated nitrite levels” value (brain NOS; 100 μM) read?
A: abolished

Q: What about the nitrite formation (brain NOS) of the same compound?
A: 3.9±1.6 μM nitrite
